Data taken from patent US20250255847A1, “[…]s: Novel Drugs for Triple Negative Breast Cancer” (SIMMARON RSEARCH INC, priority 2024, published 2025).

Tested on: transcriptional activity of STAT3
Experiment: STAT3-responsive eGFP reporter assay in MDA-MB-468 cells
Assay type: cell-based, human
Conditions: for EGF-induced GFP reporter activity: EGF 20 ng/mL, different doses; for IC50: Homo sapiens, MDA-MB-468, read-out: IC50 of STAT3 activation (eGFP reporter); for lowest concentration inhibiting STAT3 activation (eGFP reporter): as low as
Description: FIG. 10 illustrates an embodiment of the present invention and illustrates SIM-1 and SIM-2 inhibit expressions of IL6, RANTES, and other STAT3-dependent tumor promoting genes and proteins. (A) A gene array of STAT3 dependent 66 genes (listed in Table 1) was performed in mRNA samples of MDA-MB-468 cells. Realtime PCR plate coated with 66 primer sets of STAT3-dependent genes was run for four conditions including control, EGF (25 ng/mL), EGF+SIM-1 (10 nM) and EGF+SIM-2 (10 nM). The resultant Ct value was normalized with four different housekeeping genes, and then summarized with a heatmap analyses drawn in Morpheus server of Broad Institute. […] (C) The cloning of STAT3 response element of IL6 promoter upstream of GFP reporter was performed by GeneCopoea genome editing service (Rockville, MD). The bit score map and sequence of consensus STAT3 response element or SEQ ID NO: 2 was shown below. EGFP reporter assay was performed in EGF-induced (20 ng/mL) MDA-MB-468 after treatments of increasing doses of (D) SIM-1 and (E) SIM-2 for 5 hrs. Briefly, MDA-MB-468 cells were transfected with the plasmid for 24 hrs using Lipofectamine transfection strategy followed by the treatment with EGF (20 ng/mL) alone and together with increasing doses SIM-1 and SIM-2 for additional 5 hrs. After that live cells were recorded at Ex:Em=485/535 nm wavelength for GFP activity. (F) The scrambled STAT3 response element in IL6 promoter or SEQ ID NO: 3 was also synthesized partnering with GeneCopoea. One-way ANOVA (treatment as effector) was adopted to test the significance between groups at **p<0.01, #p<0.005, and *p<0.05. (G) The GFP reporter activity was measured where the scrambled gene was cloned upstream of eGFP reporter. Results are mean±SD of three different experiments Ns=no significance. (H) Realtime PCR analyses of IL6 was performed in MDA-MB-468 cells maintained under control, EGF (25 ng/mL), EGF+SIM-1(20 nM), and EGF+SIM-2 (20 nM) conditions for 5 hrs. (I) ELISA analysis of IL6 was performed after 48 hrs in MDA-MB-468 cells kept under similar treatment conditions. (J) Realtime PCR (5 hrs post-treatment) and (K) ELISA analyses of RANTES (48 hrs post treatment) were performed under similar condition. Results are mean±SD of three different experiments. One-way ANOVA (treatment as effector) was adopted to test the significance between groups at ***p<0.001, **p<0.01, and *p<0.05.
GFP reporter assay. To assay the transcriptional activities of STAT3, cells at 75% confluence were transfected by 0.1 μg of pEZX-PF02 plasmid cloned with STAT3 response element of IL6 promoter upstream of eGFP reporter. The transfection was done by Lipofectamine 3000™ reagent as per the manufacturer's protocol (Thermofisher). […] GFP reporter activities were analyzed in PerkinElmer VictorX3 plate reader at Ex:Em=485/535 nm.
Once recruited to the DNA, STAT3 controls the gene transcription. Therefore finally, an eGFP reporter assay was performed to evaluate if SIM-1 and SIM-2 inhibited the transcriptional activity of STAT3. An eGFP reporter cassette was cloned under the guidance of IL6 promoter carrying STAT response element (FIG. 10C), transfected in MDA-MB-468 cells, and then treated by EGF (20 ng/mL) along with different doses of SIM-1 and SIM-2.

SMILES	EGF-induced GFP reporter activity	IC50	lowest concentration inhibiting STAT3 activation (eGFP reporter)
O=C(O)CCC(=O)NCc1csc2ccc(Cl)cc12 [SIM-1, 4-[(5-chloro-1-benzothiophen-3-yl)methylamino]-4-oxobutanoic acid]	dose-dependently inhibited	~20 nM	5 nM
CCOC(=O)c1c(NC(C)=O)sc2c(Cl)c(/C=N/O)ccc12 [SIM-2, ethyl 2-acetamido-7-chloro-6-(hydroxyiminomethyl)-1-benzothiophene-3-carboxylate]	dose-dependently inhibited	~20 nM	5 nM
